Data as given in patent publication US9439430B2, “Method of controlling resistant harmful plants” (priority 2012, dated 2016).

How the values were obtained:
EPHHL = assay: Greenhouse test, pre-emergence (PE) soil application; assay type: in vivo, Euphorbia heterophylla; set-up: key: % effect: 0 = no effect, 100 = full effect vs untreated; details: group (B) compound alone, 20 g of AS/ha
Text: (§1) The 1:1 mixture of the two soil types was used specifically for cultivating small-seeded dicotyledonous weed since the standard field soil on its own tends to silt up, which may have an adverse effect on the emergence of small-seeded weeds. The resistances mentioned in the tables were confirmed beforehand in standard monitoring experiments. Nevertheless, the origins examined may have additional, hitherto unconfirmed resistances to various mechanisms of action.
(§2) The pots were then cultivated in a greenhouse (12-16 h light, temperature day 20-22° C., night 15-18° C.) until the time of application. The pots were treated at various BBCH stages of the seeds/plants on a laboratory track sprayer with spray liquors comprising the compositions according to the invention, mixtures of the prior art or the individual components. Application of the active compounds or active compound combinations and wetting agents formulated as WG, WP, EC or otherwise was carried out at the appropriate growth stages of the plants. The amount of water used for spray application was 100-600 l/ha. After the treatment, the plants were returned to the greenhouses and fertilized and watered as required. The pots were cultivated in a greenhouse (12-16 h light, temperature day 20-22° C., night 15-18° C.).
(§3) 3 weeks after the application, the foliar effect was evaluated on a scale of 0-100%:
(§4) 0%=no noticeable effect compared to untreated plants
(§5) 100%=full effect compared to untreated plants
(§6) The following abbreviations were used: • BBCH the BBCH code provides information about the morphological development stage of a plant. Officially, the abbreviation denotes the Biologische Bundesanstalt, Bundessortenamt and CHemische Industrie [Federal Biological Institute for Agriculture and Forestry, Federal Office for Crop Plant Varieties, Chemical Industry]. The range of BBCH 00-10 denotes the germination stages of the seeds until surface penetration. The range of BBCH 11-25 denotes the leaf development stages until stocking (corresponds to the number of tillers or side-shoots). • PE pre-emergence soil application; BBCH of the seeds/plants 00-10 • PO post-emergence application on the green parts of the plants; BBCH of the plants 11-25 • IU soil loamy silt—standard field soil • l/ha liters per hectare • S sensitive—the weed populations are sensitive to the active compounds tested • TSR target-site resistance. The weed populations comprise biotypes having a site-of-action-specific resistance, i.e. the binding site at the site of action is modified as a result of natural mutations in the gene sequence so that the active compounds are no longer able to bind, or bind in an unsatisfactory manner, and are therefore no longer able to act. • NTR non-target-site herbicide resistance; this is differentiated, inter alia, into EMR (Enhanced Metabolic Resistance) (the weed populations comprise biotypes having metabolic resistance, i.e. the plants are capable of metabolizing the active compounds more quickly via enzyme complexes, i.e. the active compounds are degraded more quickly in the plant), into reduced penetration into the plant, reduced translocation in the plant, accelerated excretion. […]

KCHSC [1] = assay: Greenhouse test, post-emergence (PO) application, foliar effect; assay type: in vivo, Kochia scoparia; details: (A) 50, (B) 20, mixture 50 + 20 g of AS/ha, 3 weeks after application
Text: as §1, §2, §3, §4, §5, §6

BRODI [2] = assay: Greenhouse test, pre-emergence (PE) soil application; assay type: in vivo, Bromus diformis; set-up: key: % effect: 0 = no effect, 100 = full effect vs untreated; details: group (B) compound alone, 20 g of AS/ha
Text: as §1, §2, §3, §4, §5, §6

LOLSS = assay: Greenhouse test, post-emergence (PO) application, foliar effect; assay type: in vivo, Lolium spp.; details: (A) 50, (B) 20, mixture 50 + 20 g of AS/ha, 3 weeks after application
Text: as §1, §2, §3, §4, §5, §6

ALOMY [3] = assay: as above; assay type: in vivo, Alopecurus myosuroides; details: ALOMY sensitive, (A) 50, (B) 20, mixture 50 + 20 g of AS/ha, 3 weeks after application
Text: as §1, §2, §3, §4, §5, §6

ERIBO = assay: as above; assay type: in vivo, Erigeron bonariensis; details: (A) 50, (B) 20, mixture 50 + 20 g of AS/ha, 3 weeks after application
Text: as §1, §2, §3, §4, §5, §6

AMATA [4] = assay: Greenhouse test, pre-emergence (PE) soil application; assay type: in vivo, Amaranthus rudis; set-up: key: % effect: 0 = no effect, 100 = full effect vs untreated; details: group (B) compound alone, 20 g of AS/ha
Text: as §1, §2, §3, §4, §5, §6

AMATA [5] = assay: Greenhouse test, post-emergence (PO) application, foliar effect; assay type: in vivo, Amaranthus rudis; details: (A) 50, (B) 20, mixture 50 + 20 g of AS/ha, 3 weeks after application
Text: as §1, §2, §3, §4, §5, §6

KCHSC [6] = assay: Greenhouse test, pre-emergence (PE) soil application; assay type: in vivo, Kochia scoparia; set-up: key: % effect: 0 = no effect, 100 = full effect vs untreated; details: group (B) compound alone, 20 g of AS/ha
Text: as §1, §2, §3, §4, §5, §6

ALOMY [7] = assay: as above; assay type: in vivo, Alopecurus myosuroides; details: group (B) compound alone, 20 g of AS/ha
Text: as §1, §2, §3, §4, §5, §6

APESV = assay: Greenhouse test, post-emergence (PO) application, foliar effect; assay type: in vivo, Apera spica-venti; details: (A) 50, (B) 20, mixture 50 + 20 g of AS/ha, 3 weeks after application
Text: as §1, §2, §3, §4, §5, §6

BIDSU [8] = assay: Greenhouse test, pre-emergence (PE) soil application; assay type: in vivo, Bidens subalternans; details: group (B) compound alone, 20 g of AS/ha
Text: as §1, §2, §3, §4, §5, §6

BIDSU [9] = assay: Greenhouse test, post-emergence (PO) application, foliar effect; assay type: in vivo, Bidens subalternans; details: BIDSU sensitive, (A) 50, (B) 20, mixture 50 + 20 g of AS/ha, 3 weeks after application
Text: as §1, §2, §3, §4, §5, §6

BRODI [10] = assay: as above; assay type: in vivo, Bromus diformis; details: (A) 50, (B) 20, mixture 50 + 20 g of AS/ha, 3 weeks after application
Text: as §1, §2, §3, §4, §5, §6

[11] = system: TTTTT (all resistant and sensitive biotypes); assay: Greenhouse test, PO application, mean over all resistant and sensitive biotypes; assay type: in vivo; details: (A) 50, (B) 20, mixture 50 + 20 g of AS/ha; for TTTTT resistant mean (effect): mean of resistant biotypes (n = 17 or n = 15); for TTTTT sensitive mean (effect): mean of sensitive biotypes (n = 11)
Text: as §1, §2, §3, §4, §5, §6

CHEAL = assay: Greenhouse test, post-emergence (PO) application, foliar effect; assay type: in vivo, Chenopodium album; details: (A) 50, (B) 20, mixture 50 + 20 g of AS/ha, 3 weeks after application
Text: as §1, §2, §3, §4, §5, §6

[12] = KCHSC resistant - group B (TSR)
[13] = LOLSS resistant - group G (NTR)
[14] = LOLSS resistant group A (TSR, NTR), B (NTR) and C2 (NA)
[15] = LOLSS resistant group A (TSR, NTR), B (TSR, NTR) and C2 (NA)
[16] = ERIBO resistant - group B (NA) and G (NTR)
[17] = AMATA resistant - group B (TSR), C1 (TSR)
[18] = APESV resistant - group B (TSR, NTR) and K1/3 (NA)
[19] = BRODI resistant - group A (TSR), B (NTR) and G (NTR)
[20] = CHEAL resistant - group B (TSR), C1 (NA) and G (NTR)

Compound | effect on EPHHL resistant - group B (TSR) (EPHHL) | effect on EPHHL resistant - group B (TSR) and G (NTR) (EPHHL) | effect on EPHHL sensitive (EPHHL) | foliar effect (KCHSC [1]; [12]) | foliar effect (KCHSC [1]; KCHSC sensitive) | effect on BRODI resistant - group A (TSR), B (NTR) and G (NTR) (BRODI [2]) | effect on BRODI sensitive (BRODI [2]) | foliar effect (LOLSS; [13]) | foliar effect (LOLSS; [14]) | foliar effect (LOLSS; [15]) | foliar effect (LOLSS; LOLSS sensitive) | foliar effect (ALOMY [3]) | foliar effect (ERIBO; [16]) | foliar effect (ERIBO; ERIBO sensitive) | effect on AMATA sensitive (AMATA [4]) | foliar effect (AMATA [5]; [17]) | foliar effect (AMATA [5]; AMATA sensitive) | effect on KCHSC resistant - group B (TSR) (KCHSC [6]) | effect on KCHSC sensitive (KCHSC [6]) | effect on ALOMY sensitive (ALOMY [7]) | also measured
CCS(=O)(=O)c1cccnc1S(=O)(=O)NC(=O)Nc1nc(OC)cc(OC)n1 [(B3), rimsulfuron] | 0 | 0 | 30 | 0% | 90% | 70 | 80 | 60% | 60% | 15% | 95% | 100% | 60% | 90% | 70 | 90% | 70% | 20 | 80 | 100 | foliar effect (APESV; [18]): 20%; foliar effect (APESV; APESV sensitive): 100%; effect on BIDSU sensitive (BIDSU [8]): 80; foliar effect (BIDSU [9]): 70%; foliar effect (BRODI [10]; [19]): 75%; foliar effect (BRODI [10]; BRODI sensitive): 100%; TTTTT resistant mean (effect) [11]: 46%; TTTTT sensitive mean (effect) [11]: 88%; foliar effect (CHEAL; [20]): 70%; foliar effect (CHEAL; CHEAL sensitive): 80%
COc1cc(OC)nc(NC(=O)NS(=O)(=O)c2cc(NC=O)ccc2C(=O)N(C)C)n1 [(B2), foramsulfuron] | 0 | 0 | 30 | 0% | 90% | 70 | 75 | 50% | 60% | 40% | 100% | 100% | 40% | 50% | 60 | 90% | 40% | 0 | 60 | 90 | foliar effect (APESV; [18]): 0%; foliar effect (APESV; APESV sensitive): 100%; effect on BIDSU sensitive (BIDSU [8]): 30; foliar effect (BIDSU [9]): 30%; foliar effect (BRODI [10]; [19]): 75%; foliar effect (BRODI [10]; BRODI sensitive): 100%; TTTTT resistant mean (effect) [11]: 34%; TTTTT sensitive mean (effect) [11]: 74%; foliar effect (CHEAL; [20]): 70%; foliar effect (CHEAL; CHEAL sensitive): 70%
COc1cc(OC)nc(NC(=O)NS(=O)(=O)c2ncccc2C(F)(F)F)n1 [(B1), flazasulfuron] | 0 | 20 | 40 | 0% | 90% | 70 | 80 | 60% | 60% | 30% | 95% | 100% | 50% | 90% | 70 | 50% | 60% | 0 | 70 | 100 | foliar effect (APESV; [18]): 30%; foliar effect (APESV; APESV sensitive): 100%; effect on BIDSU sensitive (BIDSU [8]): 80; foliar effect (BIDSU [9]): 70%; foliar effect (BRODI [10]; [19]): 75%; foliar effect (BRODI [10]; BRODI sensitive): 100%; TTTTT resistant mean (effect) [11]: 40%; TTTTT sensitive mean (effect) [11]: 87%; foliar effect (CHEAL; [20]): 70%; foliar effect (CHEAL; CHEAL sensitive): 80%
